Test results taken from ChEMBL document CHEMBL1201862, “PubChem BioAssay data set” (2004).
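Protocol summary: plate cells (96-well), add compound at 5 concentrations, incubate 48 h, interpolate endpoints linearly. GI50 is the concentration that inhibits growth by half.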 Activity calls are given as the source filed them. Cut-off read from the data, not from the text of the source: active = GI50 up to about 1.1 µM and inactive = higher.

What was measured:
Assay in all cases: DTP human tumour cell line panel, 48 h
SF-295 = tested on: SF-295
SW-620 = tested on: SW-620
ACHN = tested on: ACHN
SK-MEL-2 = tested on: SK-MEL-2
HL-60 = tested on: HL-60
SNB-19 = tested on: SNB-19
SK-OV-3 = tested on: SK-OV-3
HOP-92 = tested on: HOP-92
MOLT-4 = tested on: MOLT-4
HCC 2998 = tested on: HCC 2998
SNB-75 = tested on: SNB-75
NCI-H23 = tested on: NCI-H23
U-251 = tested on: U-251
UACC-62 = tested on: UACC-62
DLD-1 = tested on: DLD-1
HT-29 = tested on: HT-29
CCRF-CEM = tested on: CCRF-CEM
RXF 393 = tested on: RXF 393
EKVX = tested on: EKVX
SN12C = tested on: SN12C
TK-10 = tested on: TK-10
DMS-114 = tested on: DMS-114
SF-268 = tested on: SF-268
RXF 631 = tested on: RXF 631
OVCAR-4 = tested on: OVCAR-4
KM-20L2 = tested on: KM-20L2
SK-MEL-28 = tested on: SK-MEL-28
IGROV-1 = tested on: IGROV-1
M19-MEL = tested on: M19-MEL
RPMI-8226 = tested on: RPMI-8226
DMS-273 = tested on: DMS-273
OVCAR-5 = tested on: OVCAR-5
HOP-62 = tested on: HOP-62
HCT-15 = tested on: HCT-15
UACC-257 = tested on: UACC-257
A549 = tested on: A549
HOP-18 = tested on: HOP-18
K562 = tested on: K562
SK-MEL-5 = tested on: SK-MEL-5
COLO 205 = tested on: COLO 205
NCI-H460 = tested on: NCI-H460
M14 = tested on: M14
OVCAR-3 = tested on: OVCAR-3
NCI-H522 = tested on: NCI-H522
KM12 = tested on: KM12
LOX IMVI = tested on: LOX IMVI
OVCAR-8 = tested on: OVCAR-8
LXFL 529 = tested on: LXFL 529
SF-539 = tested on: SF-539
Malme-3M = tested on: Malme-3M
786-0 = tested on: 786-0
UO-31 = tested on: UO-31
CAKI-1 = tested on: CAKI-1
SNB-78 = tested on: SNB-78
HCT-116 = tested on: HCT-116
A498 = tested on: A498
XF498 = tested on: XF498

O=C1C2C(C(=O)N1c1ccccc1)C1(c3ccccc3)OC2(c2ccccc2)c2ccccc21 (configuration not stated)
GI50 (SF-295): > 100 µM (inactive) | GI50 (SW-620): > 100 µM (inactive) | GI50 (ACHN): > 100 µM (inactive) | GI50 (SK-MEL-2): > 100 µM (inactive) | GI50 (HL-60): > 100 µM (inactive) | GI50 (SNB-19): > 100 µM (inactive) | GI50 (SK-OV-3): > 100 µM (inactive) | GI50 (HOP-92): 1.93 µM (inactive) | GI50 (MOLT-4): > 100 µM (inactive) | GI50 (HCC 2998): > 100 µM (inactive) | GI50 (SNB-75): 12.8 µM (inactive) | GI50 (NCI-H23): > 100 µM (inactive) | GI50 (U-251): > 100 µM (inactive) | GI50 (UACC-62): > 100 µM (inactive) | GI50 (DLD-1): > 100 µM (inactive) | GI50 (HT-29): > 100 µM (inactive) | GI50 (CCRF-CEM): > 100 µM (inactive) | GI50 (RXF 393): > 100 µM (inactive) | GI50 (EKVX): > 100 µM (inactive) | GI50 (SN12C): > 100 µM (inactive) | GI50 (TK-10): > 100 µM (inactive) | GI50 (DMS-114): > 100 µM (inactive) | GI50 (SF-268): > 100 µM (inactive) | GI50 (RXF 631): > 100 µM (inactive) | GI50 (OVCAR-4): > 100 µM (inactive) | GI50 (KM-20L2): > 100 µM (inactive) | GI50 (SK-MEL-28): > 100 µM (inactive) | GI50 (IGROV-1): > 100 µM (inactive) | GI50 (M19-MEL): > 100 µM (inactive) | GI50 (RPMI-8226): > 100 µM (inactive) | GI50 (DMS-273): > 100 µM (inactive) | GI50 (OVCAR-5): 4.14 µM (inactive) | GI50 (HOP-62): > 100 µM (inactive) | GI50 (HCT-15): > 100 µM | GI50 (UACC-257): > 100 µM (inactive) | GI50 (A549): > 100 µM (inactive) | GI50 (HOP-18): > 100 µM (inactive) | GI50 (K562): > 100 µM (inactive) | GI50 (SK-MEL-5): 2.78 µM (inactive) | GI50 (COLO 205): > 100 µM (inactive) | GI50 (NCI-H460): > 100 µM (inactive) | GI50 (M14): > 100 µM (inactive) | GI50 (OVCAR-3): > 100 µM (inactive) | GI50 (NCI-H522): 30.6 µM (inactive) | GI50 (KM12): > 100 µM (inactive) | GI50 (LOX IMVI): > 100 µM (inactive) | GI50 (OVCAR-8): > 100 µM (inactive) | GI50 (LXFL 529): > 100 µM (inactive) | GI50 (SF-539): > 100 µM (inactive) | GI50 (Malme-3M): > 100 µM (inactive) | GI50 (786-0): > 100 µM (inactive) | GI50 (UO-31): > 100 µM (inactive) | GI50 (CAKI-1): > 100 µM (inactive)

O=S(O)CCCCSSCCCCS(=O)(=O)S
GI50 (SF-295): 35.5 µM (inactive) | GI50 (SW-620): 37.7 µM (inactive) | GI50 (ACHN): 72.6 µM (inactive) | GI50 (SK-MEL-2): 35.7 µM (inactive) | GI50 (SNB-19): > 100 µM (inactive) | GI50 (SK-OV-3): > 100 µM (inactive) | GI50 (SNB-78): 35.1 µM (inactive) | GI50 (MOLT-4): 2 µM (inactive) | GI50 (HCC 2998): > 100 µM (inactive) | GI50 (SNB-75): 10.9 µM (inactive) | GI50 (NCI-H23): 53.6 µM (inactive) | GI50 (U-251): > 100 µM (inactive) | GI50 (UACC-62): 18 µM (inactive) | GI50 (DLD-1): > 100 µM (inactive) | GI50 (HT-29): 38.6 µM (inactive) | GI50 (CCRF-CEM): 13.8 µM (inactive) | GI50 (RXF 393): 43.3 µM (inactive) | GI50 (HCT-116): > 100 µM (inactive) | GI50 (EKVX): 19.4 µM (inactive) | GI50 (SN12C): 71 µM (inactive) | GI50 (TK-10): 42.6 µM (inactive) | GI50 (DMS-114): 39.4 µM (inactive) | GI50 (SF-268): 35.6 µM (inactive) | GI50 (RXF 631): 51.9 µM (inactive) | GI50 (OVCAR-4): 25.5 µM (inactive) | GI50 (KM-20L2): > 100 µM (inactive) | GI50 (SK-MEL-28): 27 µM (inactive) | GI50 (IGROV-1): > 100 µM (inactive) | GI50 (M19-MEL): 12.1 µM (inactive) | GI50 (DMS-273): 50.9 µM (inactive) | GI50 (OVCAR-5): > 100 µM (inactive) | GI50 (HOP-62): > 100 µM (inactive) | GI50 (HCT-15): 59 µM | GI50 (UACC-257): 21.1 µM (inactive) | GI50 (A498): > 100 µM (inactive) | GI50 (A549): 40.7 µM (inactive) | GI50 (HOP-18): 84.3 µM (inactive) | GI50 (K562): 32.1 µM (inactive) | GI50 (SK-MEL-5): 14.2 µM (inactive) | GI50 (COLO 205): 48.5 µM (inactive) | GI50 (NCI-H460): 64.3 µM (inactive) | GI50 (M14): 15.7 µM (inactive) | GI50 (OVCAR-3): 49.2 µM (inactive) | GI50 (NCI-H522): 19.3 µM (inactive) | GI50 (KM12): 67.6 µM (inactive) | GI50 (LOX IMVI): 27.4 µM (inactive) | GI50 (OVCAR-8): 37.8 µM (inactive) | GI50 (LXFL 529): 22.2 µM (inactive) | GI50 (SF-539): 98.6 µM (inactive) | GI50 (Malme-3M): 17.6 µM (inactive) | GI50 (786-0): > 100 µM (inactive) | GI50 (UO-31): 51.3 µM (inactive) | GI50 (XF498): 15.3 µM (inactive) | GI50 (CAKI-1): > 100 µM (inactive)
